Patent US10993950B2, “Medical device for the treatment of HPV cutaneous infections” (Poli MD S.R.L., priority 2017, dated 2021)

Tested on: SkinEthic RHE/S/17 reconstituted human epidermis
Test: TEM ultrastructure of artificial constructs of human skin (SkinEthic) after treatment with ASA compositions
Format: cell-based
Protocol: Experiments Comparing Different ASA-Containing Compositions on the Ultrastructure of Artificial Constructs of Human Skin (SkinEthic)
Artificial Constructs of Human Skin
SkinEthic™ RHE/S/17 reconstituted human epidermis samples were used. This is an in vitro reconstituted human epidermis from normal human keratinocytes grown on a polycarbonate filter at the air-liquid interface.
The tissue samples were removed from the protective agarose and incubated in a multiwell with 6 wells with 1 ml of maintenance medium per well.
After about 14 hours of incubation with the described-above compositions, the epidermis inserts were cut and fixed in 500 microliters of fixative (glutaraldehyde 2.5%, paraformaldehyde 2% in cacodylate buffer 0.1 M at pH 7.4) for 2 hours at room temperature.
After trimming small rectangles of fabric, the samples were included in an epoxy resin. Ultra-thin slices were obtained and placed on copper screens, then stained with uranyl acetate and lead citrate.

- overall appearance of the basal, spinous and granular layers (TEM): preserved and similar to the control
Compound: CC(O)CO (stereo not drawn) [Composition 3, propylene glycol]
- N. of corneocyte layers left after treatment (about 14 hours of incubation, TEM, not-treated control >25): 19-20
- efficacy as judged from corneocyte layers left (verbal rating of Table 1 data): poor efficacy
